Our source for the Activity and viability values is ChEMBL document CHEMBL4138272, “Neuroprotective Dihydroagarofuran Sesquiterpene Derivatives from the Leaves of Tripterygium wilfordii” (2018).

Activity calls are given as the source filed them. The rule behind the calls is not given here.

For this experiment, the system named is PC-12. In words: Neuroprotective activity against okadaic acid-induced cell injury in rat PC12 cells assessed as cell viability at 10 uM after 48 hrs by MTT assay (reference value: 60.4 +/- 23%). The format is functional. The note with it: for viability at 10 µM: PC-12, 48 h, read-out: Activity.

`CC(=O)OC[C@@]12[C@@H](OC(=O)/C=C\c3ccccc3)CC[C@](C)(O)[C@]13OC(C)(C)[C@H]([C@@H](OC(C)=O)[C@H]2OC(=O)c1ccoc1)[C@H]3O`: the outcome was inactive.
On to `CC(=O)OC[C@@]12[C@@H](OC(=O)/C=C/c3ccccc3)CC[C@@H](C)[C@]13OC(C)(C)[C@H]([C@@H](OC(C)=O)[C@H]2OC(=O)c1cccnc1)[C@H]3OC(C)=O`, for which the viability at 10 µM came to 81.2%.
Turning to `CC(=O)OC[C@@]12[C@@H](OC(=O)/C=C/c3ccccc3)CC[C@](C)(O)[C@]13OC(C)(C)[C@H]([C@@H](O)[C@H]2O)[C@H]3OC(C)=O`, the outcome was inactive.
Take `CC(=O)OC[C@@]12[C@@H](OC(=O)/C=C/c3ccccc3)CC[C@](C)(O)[C@]13OC(C)(C)[C@H]([C@@H](O)[C@H]2OC(=O)c1ccoc1)[C@H]3OC(C)=O`: the outcome was inactive.
Take `CC(=O)OC[C@]12[C@H](OC(C)=O)[C@H](OC(C)=O)[C@@H]3[C@@H](OC(=O)c4ccccc4)[C@@]14OC3(C)COC(=O)c1cccnc1C(C)C(C)C(=O)O[C@@H]([C@H](O)[C@@H]2OC(=O)c1ccccc1)[C@]4(C)O` (stereo partly drawn): the viability at 10 µM turned out to be 86.2%.
Turning to `CC(=O)OC[C@@]12[C@@H](OC(C)=O)CC[C@@H](C)[C@]13OC(C)(C)[C@H]([C@@H](OC(C)=O)[C@H]2OC(=O)c1cccnc1)[C@H]3OC(=O)c1ccoc1`, the viability at 10 µM stood at 71.5%.
Turning to `CC(=O)OC[C@@]12[C@@H](OC(=O)/C=C/c3ccccc3)CC[C@](C)(O)[C@]13OC(C)(C)[C@H](C(=O)[C@H]2OC(=O)c1ccoc1)[C@H]3O`, the outcome was inactive.
For `CC(=O)OC[C@@]12[C@@H](OC(=O)c3ccoc3)CC[C@@H](C)[C@]13OC(C)(C)[C@H]([C@@H](OC(C)=O)[C@H]2OC(=O)c1cccnc1)[C@H]3OC(=O)c1ccoc1`, the outcome was inactive.
The same measure, in the same setting: under `CC(=O)O[C@@H]1[C@H]2[C@@H](O)[C@@H](OC(=O)c3ccoc3)[C@]3(CO)[C@@H](OC(=O)/C=C/c4ccccc4)CC[C@](C)(O)[C@@]13OC2(C)C` stands “inactive”; under `CC(=O)OC[C@@]12[C@@H](OC(=O)/C=C/c3ccccc3)CC[C@](C)(O)[C@]13OC(C)(C)[C@H]([C@@H](OC(C)=O)[C@H]2OC(=O)c1ccoc1)[C@H]3O`, “inactive”.
For `CC(=O)OC[C@@]12[C@@H](OC(=O)/C=C\c3ccccc3)CC[C@@H](C)[C@]13OC(C)(C)[C@H]([C@@H](OC(C)=O)[C@H]2OC(=O)c1cccnc1)[C@H]3OC(C)=O`, the viability at 10 µM stood at 75.7%.
On the same count and under the same terms, under `CC(=O)OC[C@@]12[C@@H](OC(=O)c3ccoc3)CC[C@@H](C)[C@]13OC(C)(C)[C@H]([C@@H](OC(C)=O)[C@H]2OC(=O)c1cccnc1)[C@H]3OC(C)=O` stands 72.4%.
`CC(=O)OC[C@@]12[C@@H](OC(=O)/C=C\c3ccccc3)CC[C@](C)(O)[C@]13OC(C)(C)[C@H](C(=O)[C@H]2OC(=O)c1ccoc1)[C@H]3O`: the outcome was inactive.
